Literature values in PubChem BioAssay AID1259409 (Chemical Carcinogenesis Research Information System (CCRIS), 2018).
“And” between values parts separate entries of the source, which are not always exact repeats. Equal values may be shown once.

Test system: rodent chemically induced tumor inhibition, incidence and multiplicity
Assay: CCRIS tumor inhibitor studies
Settings: for outcome: Target Tissue: Type of Lesion: THYROID GLAND: ADENOMA

Compound: COc1c2ccoc2cc2cc(C)oc(=O)c12
- tumour outcome (control, treated, inhibition, significance) (Carcinogen: 7,12-DIMETHYLBENZ[A]ANTHRACENE, 57-97-6, Dose [Inhibitor]: 0, 400 NMOL ONCE APPLIED 5 MIN PRIOR TO CARCINOGEN DOSE (STUDY DURATION: 25 WK), Route [Inhibitor]: DERMAL, Species: MOUSE, Strain/Sex: SENCAR, Target Tissue: Type of Lesion: SKIN: PAPILLOMA, Dose [Carcinogen]: 10 NMOL ONCE, Promoter: 12-O-TETRADECANOYLPHORBOL-13-ACETATE, 16561-29-8): 96%, 96%, 0%, not significant
- tumour outcome (control, treated, inhibition, significance) (Carcinogen: BENZO[A]PYRENE, 50-32-8, Dose [Inhibitor]: 0, 400 NMOL ONCE APPLIED 5 MIN PRIOR TO CARCINOGEN DOSE (STUDY DURATION: 25 WK), Route [Inhibitor]: DERMAL, Species: MOUSE, Strain/Sex: SENCAR, Target Tissue: Type of Lesion: SKIN: PAPILLOMA, Dose [Carcinogen]: 200 NMOL ONCE, Promoter: 12-O-TETRADECANOYLPHORBOL-13-ACETATE, 16561-29-8): 91%, 91%, 0%, not significant

Compound: CC(/C=C/C=C(\C)C(=O)O)=C\C=C\C=C(C)\C=C\C=C(/C)C(=O)O
- tumour outcome (control, treated, inhibition, significance) (Carcinogen: BENZO[A]PYRENE, 50-32-8, Dose [Inhibitor]: 0, 0.2 UMOL IN 0.2 ML ACETONE 2/WK FOR 20 WK ADMINISTERED CONCURRENTLY WITH PROMOTER (STUDY DURATION: 21 WK), Route [Inhibitor]: DERMAL, Species: MOUSE, Strain/Sex: CD-1/FEMALE, Target Tissue: Type of Lesion: SKIN: PAPILLOMA, Dose [Carcinogen]: 20 NMOL IN 0.2 ML ACETONE 1/WK FOR 10 WK, Promoter: 12-O-TETRADECANOYLPHORBOL-13-ACETATE, 16561-29-8): 100%, 53%, 47%, not calculated
- tumour outcome (control, treated, inhibition, significance) (Carcinogen: BENZO[A]PYRENE, 50-32-8, Dose [Inhibitor]: 0, 1 UMOL IN 0.2 ML ACETONE 2/WK FOR 20 WK ADMINISTERED CONCURRENTLY WITH PROMOTER (STUDY DURATION: 21 WK), Route [Inhibitor]: DERMAL, Species: MOUSE, Strain/Sex: CD-1/FEMALE, Target Tissue: Type of Lesion: SKIN: PAPILLOMA, Dose [Carcinogen]: 20 NMOL IN 0.2 ML ACETONE 1/WK FOR 10 WK, Promoter: 12-O-TETRADECANOYLPHORBOL-13-ACETATE, 16561-29-8): 100%, 28%, 72%, not calculated

Compound: CC1=CCC(C(C)(O)CO)CC1 (stereo not drawn)
- tumour outcome (control, treated, inhibition, significance) (Carcinogen: 7,12-DIMETHYLBENZ[A]ANTHRACENE, 57-97-6, Dose [Inhibitor]: 0, 1% IN DIET FOR 3 WK BEGINNING 2 WK PRIOR TO CARCINOGEN DOSE (STUDY DURATION: 20 WK), Route [Inhibitor]: ORAL, Species: RAT, Strain/Sex: WISTAR/FEMALE, Target Tissue: Type of Lesion: MAMMARY GLAND: CARCINOMA, Dose [Carcinogen]: 50 MG/KG IN SESAME OIL ONCE, Promoter: NONE USED): 98%, 84%, 14%, not significant

Compound: O=c1c(O)c(-c2ccc(O)cc2O)oc2cc(O)cc(O)c12
- tumour outcome (control, treated, inhibition, significance) (Carcinogen: 4-NITROQUINOLINE-1-OXIDE [56-57-5], Dose [Inhibitor]: 100 PPM IN DIET FOR 10 WK BEGINNING 1 WK PRIOR TO FIRST CARCINOGEN DOSE (STUDY DURATION: 32 WK), Route [Inhibitor]: ORAL, Species: RAT, Strain/Sex: F344/MALE, Target Tissue: Type of Lesion: TONGUE: SQUAMOUS CELL PAPILLOMA, Dose [Carcinogen]: 20 PPM FOR 8 WK IN DRINKING WATER (STUDY DURATION: 32 WK), Promoter: NONE): 9/25 (36%), 3/19 (16%), 56%, not significant and 14/25 (56%), 1/19 (5%), 91%, p=0.0004
- tumour outcome (control, treated, inhibition, significance) (Carcinogen: 4-NITROQUINOLINE-1-OXIDE [56-57-5], Dose [Inhibitor]: 100 PPM IN DIET FOR 22 WK BEGINNING 1 WK POST LAST CARCINOGEN DOSE (STUDY DURATION: 31 WK), Route [Inhibitor]: ORAL, Species: RAT, Strain/Sex: F344/MALE, Target Tissue: Type of Lesion: TONGUE: SQUAMOUS CELL PAPILLOMA, Dose [Carcinogen]: 20 PPM FOR 8 WK IN DRINKING WATER (STUDY DURATION: 32 WK), Promoter: NONE): 9/25 (36%), 0/20 (0%), 100%, p=0.003 and 14/25 (56%), 1/20 (5%), 91%, p=0.0003
- tumour outcome (control, treated, inhibition, significance) (Carcinogen: 4-NITROQUINOLINE-1-OXIDE [56-57-5], Dose [Inhibitor]: 500 PPM IN DIET FOR 10 WK BEGINNING 1 WK PRIOR TO FIRST CARCINOGEN DOSE (STUDY DURATION: 32 WK), Route [Inhibitor]: ORAL, Species: RAT, Strain/Sex: F344/MALE, Target Tissue: Type of Lesion: TONGUE: SQUAMOUS CELL PAPILLOMA, Dose [Carcinogen]: 20 PPM FOR 8 WK IN DRINKING WATER (STUDY DURATION: 32 WK), Promoter: NONE): 9/25 (36%), 2/20 (10%), 72%, p=0.045 and 14/25 (56%), 0/20 (0%), 100%, p=0.00003
- tumour outcome (control, treated, inhibition, significance) (Carcinogen: 4-NITROQUINOLINE-1-OXIDE [56-57-5], Dose [Inhibitor]: 500 PPM IN DIET FOR 22 WK BEGINNING 1 WK POST LAST CARCINOGEN DOSE (STUDY DURATION: 31 WK), Route [Inhibitor]: ORAL, Species: RAT, Strain/Sex: F344/MALE, Target Tissue: Type of Lesion: TONGUE: SQUAMOUS CELL PAPILLOMA, Dose [Carcinogen]: 20 PPM FOR 8 WK IN DRINKING WATER (STUDY DURATION: 32 WK), Promoter: NONE): 14/25 (56%), 1/20 (5%), 91%, p=0.0003

Compound: C=C(C)C1C=CC(C)(O)CC1 (stereo not drawn)
- tumour outcome (control, treated, inhibition, significance) (Carcinogen: BENZO[A]PYRENE, 50-32-8, Dose [Inhibitor]: 0, 20 MG 3/WK FOR 4 WK ON DAYS OTHER THAN THE CARCINOGEN TREATMENT (STUDY DURATION: 20 WK), Route [Inhibitor]: GAVAGE, Species: MOUSE, Strain/Sex: STRAIN-A/FEMALE, Target Tissue: Type of Lesion: FORESTOMACH: TUMOR, Dose [Carcinogen]: 1 MG IN 0.2 ML COTTONSEED OIL 2/WK FOR 4 WK, Promoter: NONE USED): 13/19 (68%), 7/14 (50%), 26%, not significant

Compound: CCNc1nc(Cl)nc(NC(C)C)n1
- outcome (Carcinogen: N-NITROSOBIS(2-HYDROXYPROPYL)AMINE, 53609-64-6, Dose [Inhibitor]: 0, 400 PPM IN DIET FOR 25 WK BEGINNING 9 WK POST CARCINOGEN TREATMENT (STUDY DURATION: 35 WK), Route [Inhibitor]: ORAL, Species: RAT, Strain/Sex: F344/FEMALE, Dose [Carcinogen]: 2000 MG/KG 1 WK POST BILATERAL OVARIECTOMY, Promoter: SULFADIMETHOXINE, 122-11-2): 0/12 (0%), 0/15 (0%), 0%, not significant
- tumour outcome (control, treated, inhibition, significance) (Carcinogen: N-NITROSOBIS(2-HYDROXYPROPYL)AMINE, 53609-64-6, Dose [Inhibitor]: 0, 400 PPM IN DIET FOR 25 WK BEGINNING 9 WK POST CARCINOGEN TREATMENT (STUDY DURATION: 35 WK), Route [Inhibitor]: ORAL, Species: RAT, Strain/Sex: F344/FEMALE, Target Tissue: Type of Lesion: THYROID GLAND: CARCINOMA, Dose [Carcinogen]: 2000 MG/KG 1 WK POST BILATERAL OVARIECTOMY, Promoter: SULFADIMETHOXINE, 122-11-2): 10/12 (83%), 9/15 (60%), 28%, not significant
- outcome (Carcinogen: N-NITROSOBIS(2-HYDROXYPROPYL)AMINE, 53609-64-6, Dose [Inhibitor]: 0, 400 PPM IN DIET FOR 27 WK BEGINNING 9 WK POST CARCINOGEN TREATMENT (STUDY DURATION: 37 WK), Route [Inhibitor]: ORAL, Species: RAT, Strain/Sex: F344/FEMALE, Dose [Carcinogen]: 2000 MG/KG BW 1 WK POST BILATERAL OVARIECTOMY, Promoter: SULFADIMETHOXINE, 122-11-2): 0/12 (0%), 0/15 (0%), 0%, not significant
- tumour outcome (control, treated, inhibition, significance) (Carcinogen: N-NITROSOBIS(2-HYDROXYPROPYL)AMINE, 53609-64-6, Dose [Inhibitor]: 0, 400 PPM IN DIET FOR 27 WK BEGINNING 9 WK POST CARCINOGEN TREATMENT (STUDY DURATION: 37 WK), Route [Inhibitor]: ORAL, Species: RAT, Strain/Sex: F344/FEMALE, Target Tissue: Type of Lesion: THYROID GLAND: CARCINOMA, Dose [Carcinogen]: 2000 MG/KG BW 1 WK POST BILATERAL OVARIECTOMY, Promoter: SULFADIMETHOXINE, 122-11-2): 10/12 (83%), 8/15 (53%), 36%, not significant

Compound: Oc1c(F)c(F)cc(F)c1F
- tumour outcome (control, treated, inhibition, significance) (Carcinogen: BENZO[A]PYRENE, 50-32-8, Dose [Inhibitor]: 0.03 MMOL/G OF DIET DAILY STARTING 7 D BEFORE AND CONTINUING THROUGH 3 D AFTER CARCINOGEN TREATMENT FOLLOWED BY OBSERVAT, Route [Inhibitor]: ORAL, Species: MOUSE, Strain/Sex: ICR/FEMALE, Target Tissue: Type of Lesion: FORESTOMACH: NEOPLASM, Dose [Carcinogen]: 1 MG IN 0.2 ML CORN OIL 2/WK FOR 4 WK, Promoter: NONE USED): 100%, 95%, 5%, not significant and 97%, 84%, 13%, not significant

Compound: CCOC(=O)Oc1ccc(/C=C/C=C/C(=O)NCCN2CCC(OC(c3ccccc3)c3ccccc3)CC2)cc1OC
- tumour outcome (control, treated, inhibition, significance) (Carcinogen: 7,12-DIMETHYLBENZ[A]ANTHRACENE, 57-97-6, Dose [Inhibitor]: 0, 30 MG/KG IN 5% TWEEN 80 ADMINISTERED 30 MIN PRIOR TO EACH PROMOTER DOSE 2/WK FOR 22 WK (STUDY DURATION: 25 WK), Route [Inhibitor]: ORAL, Species: MOUSE, Strain/Sex: CD-1/FEMALE, Target Tissue: Type of Lesion: SKIN: TUMOR, Dose [Carcinogen]: 200 NMOL ONCE, Promoter: 12-O-TETRADECANOYL-13-ACETATE, 16561-29-8): 100%, 55%, 45%, p<0.05
- tumour outcome (control, treated, inhibition, significance) (Carcinogen: 7,12-DIMETHYLBENZ[A]ANTHRACENE, 57-97-6, Dose [Inhibitor]: 0, 30 MG/KG IN 5% TWEEN 80 ADMINISTERED 30 MIN PRIOR TO EACH PROMOTER DOSE 2/WK FOR 22 WK (STUDY DURATION: 25 WK), Route [Inhibitor]: ORAL, Species: MOUSE, Strain/Sex: CD-1/FEMALE, Target Tissue: Type of Lesion: SKIN: TUMOR, Dose [Carcinogen]: 200 NMOL ONCE, Promoter: ANTHRALIN, 1143-38-0): 92%, 35%, 62%, p<0.05
- tumour outcome (control, treated, inhibition, significance) (Carcinogen: BENZO[A]PYRENE, 50-32-8, Dose [Inhibitor]: 0, 30 MG/KG IN 5% TWEEN 80 1/WK FOR 22 WK ADMINISTERED 30 MIN PRIOR TO EACH CARCINOGEN DOSE (STUDY DURATION: 22 WK), Route [Inhibitor]: ORAL, Species: MOUSE, Strain/Sex: CD-1/FEMALE, Target Tissue: Type of Lesion: SKIN: TUMOR, Dose [Carcinogen]: 200 NMOL 1/WK FOR 22 WK, Promoter: NONE USED): 100%, 50%, 50%, p<0.05
